Experimental data: the NIST ThermoML archive (doi:10.1021/je400968v)

Assay: mn = molality of the nth substance listed, in mol/kg
Details: 101 kPa, Liquid; for viscosity: Capillary tube (Ostwald / Ubbelohde) method; for mass density: Vibrating tube method

Cc1c(N)cccc1N [2,6-diaminotoluene] + CCCO
Details	mass density, 293.15 K [kg/m3]	mass density, 303.15 K [kg/m3]	mass density, 313.15 K [kg/m3]	mass density, 323.15 K [kg/m3]	mass density, 333.15 K [kg/m3]	viscosity, 293.15 K [mPa·s]	viscosity, 303.15 K [mPa·s]	viscosity, 313.15 K [mPa·s]	viscosity, 323.15 K [mPa·s]	viscosity, 333.15 K [mPa·s]
m1 = 0.0501	805.5	797.18	789	780.63	772.03	2.19	1.709	1.348	1.074	0.864
m1 = 0.0997	807.1	798.78	790.58	782.21	773.6	2.209	1.72	1.355	1.079	0.869
m1 = 0.1498	808.7	800.36	792.16	783.77	775.16	2.226	1.734	1.365	1.086	0.874
m1 = 0.1995	810.26	801.92	793.7	785.32	776.68	2.245	1.744	1.372	1.092	0.878
m1 = 0.2499	811.81	803.46	795.23	786.83	778.21	2.268	1.759	1.383	1.099	0.883
m1 = 0.2994	813.34	804.95	796.73	788.33	779.69	2.282	1.77	1.391	1.106	0.888
m1 = 0.3496	814.83	806.45	798.21	789.79	781.15	2.305	1.789	1.401	1.112	0.893

Cc1ccc(N)cc1N [4-methyl-1,3-benzendiamine] + CCO
Details	mass density, 293.15 K [kg/m3]	mass density, 303.15 K [kg/m3]	mass density, 313.15 K [kg/m3]	mass density, 323.15 K [kg/m3]	mass density, 333.15 K [kg/m3]	viscosity, 293.15 K [mPa·s]	viscosity, 303.15 K [mPa·s]	viscosity, 313.15 K [mPa·s]	viscosity, 323.15 K [mPa·s]	viscosity, 333.15 K [mPa·s]
m1 = 0.0503	791.4	782.79	774	765.08	755.96	1.196	0.982	0.815	0.68	0.571
m1 = 0.0999	793.18	784.54	775.74	766.82	757.7	1.208	0.995	0.821	0.685	0.576
m1 = 0.1497	794.92	786.27	777.46	768.52	759.41	1.224	1.004	0.829	0.691	0.579
m1 = 0.1994	796.64	787.95	779.14	770.21	761.1	1.236	1.015	0.836	0.696	0.583
m1 = 0.2494	798.32	789.63	780.81	771.88	762.76	1.252	1.027	0.845	0.703	0.588
m1 = 0.2997	799.96	791.27	782.46	773.52	764.42	1.265	1.037	0.853	0.708	0.592
m1 = 0.3496	801.58	792.88	784.07	775.13	766.03	1.28	1.046	0.861	0.714	0.597
m1 = 0.3994	803.15	794.44	785.66	776.73	767.62	1.293	1.059	0.868	0.72	0.601
m1 = 0.4496	804.71	796.01	787.24	778.31	769.19	1.31	1.068	0.877	0.727	0.607
m1 = 0.4995	806.25	797.53	788.77	779.84	770.7	1.323	1.079	0.883	0.731	0.61
m1 = 0.5492	807.75	799.06	790.28	781.37	772.2	1.34	1.09	0.893	0.739	0.616
m1 = 0.5989	809.18	800.53	791.76	782.81	773.66	1.353	1.101	0.899	0.743	0.619
